Patent US9115374B2, “SYN3 compositions and methods” (MERCK SHARP & DOHME CORP., priority 2001, dated 2015)

Assay: Stability of lyophilized formulations of SYN3, concentration by HPLC after reconstitution
Type: physicochemical
Details: in the dehydrated powder at 40° C.
Procedure: Stability testing of the resultant lyophilized products of Examples 13, 14 and 15 yielded the following results:
Stability testing was accomplished by HPLC. Lyophilized formulations were reconstituted (redissolved) with 19.5 ml WFI. Samples were placed in the indicated temperature conditions, incubated for specified times and concentrations were determined by HPLC and compared to initial concentrations.

With `C[C@H](CCC(=O)NCCCN(CCCNC(=O)[C@H](O)[C@@H](O)[C@H](O[C@@H]1O[C@H](CO)[C@H](O)[C@H](O)[C@H]1O)[C@H](O)CO)C(=O)CC[C@@H](C)[C@H]1CC[C@H]2[C@@H]3[C@H](O)C[C@@H]4C[C@H](O)CC[C@]4(C)[C@H]3C[C@H](O)[C@]12C)[C@H]1CC[C@H]2[C@@H]3[C@H](O)C[C@@H]4C[C@H](O)CC[C@]4(C)[C@H]3C[C@H](O)[C@]12C` [SYN3, (N —(3-cholamidopropyl)—N —(3-lactobionamidopropyl))-cholamide] the “time SYN3 remains stable” value was “at least 3 months”.
